Data taken from US12275731B2, “Azaindole inhibitors of wild-type and mutant forms of LRRK2” (DANA-FARBER CANCER INSTITUTE, INC., priority 2018, dated 2025).

Experiments:
Assay in all cases: KinomeScan profiling
Assay type in all cases: binding
YSK1 = YSK1 (Homo sapiens, UniProt O00506); conditions: YSK1, 1 μM; read-out: % control
Procedure, shortened: (§1)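 Luminescence (RLU) was converted to percent of control, with DMSO set as 100% and a reference compound as 0%. Test compounds were run at 1 μM against 468 kinases. Kinases showing below 35% of control were scored as bound.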

MST2 = molecular target: T1, MST2 (Homo sapiens, UniProt Q13188); conditions: MST2, 1 μM; read-out: % control
T1 sequence (Q13188 1-491): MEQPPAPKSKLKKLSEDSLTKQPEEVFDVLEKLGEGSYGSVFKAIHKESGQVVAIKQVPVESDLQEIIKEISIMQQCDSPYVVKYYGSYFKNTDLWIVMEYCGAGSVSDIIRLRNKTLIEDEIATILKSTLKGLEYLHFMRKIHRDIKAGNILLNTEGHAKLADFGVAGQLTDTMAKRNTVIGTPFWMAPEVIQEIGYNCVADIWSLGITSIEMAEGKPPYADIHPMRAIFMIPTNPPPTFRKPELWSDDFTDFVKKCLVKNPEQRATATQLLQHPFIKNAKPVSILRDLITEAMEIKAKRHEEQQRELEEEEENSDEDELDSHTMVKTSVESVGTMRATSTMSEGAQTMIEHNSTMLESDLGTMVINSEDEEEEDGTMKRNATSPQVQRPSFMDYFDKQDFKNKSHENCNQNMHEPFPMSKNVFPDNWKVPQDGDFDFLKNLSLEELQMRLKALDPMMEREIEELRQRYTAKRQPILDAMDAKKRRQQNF
Procedure, shortened: as §1

ERK2 = ERK2 (Homo sapiens, UniProt P28482); conditions: ERK2, 1 μM; read-out: % control
Procedure, shortened: as §1

TRPM6 = TRPM6 (Homo sapiens, UniProt Q9BX84); conditions: TRPM6, 1 μM; read-out: % control
Chain of TRPM6 (Q9BX84 whole entry): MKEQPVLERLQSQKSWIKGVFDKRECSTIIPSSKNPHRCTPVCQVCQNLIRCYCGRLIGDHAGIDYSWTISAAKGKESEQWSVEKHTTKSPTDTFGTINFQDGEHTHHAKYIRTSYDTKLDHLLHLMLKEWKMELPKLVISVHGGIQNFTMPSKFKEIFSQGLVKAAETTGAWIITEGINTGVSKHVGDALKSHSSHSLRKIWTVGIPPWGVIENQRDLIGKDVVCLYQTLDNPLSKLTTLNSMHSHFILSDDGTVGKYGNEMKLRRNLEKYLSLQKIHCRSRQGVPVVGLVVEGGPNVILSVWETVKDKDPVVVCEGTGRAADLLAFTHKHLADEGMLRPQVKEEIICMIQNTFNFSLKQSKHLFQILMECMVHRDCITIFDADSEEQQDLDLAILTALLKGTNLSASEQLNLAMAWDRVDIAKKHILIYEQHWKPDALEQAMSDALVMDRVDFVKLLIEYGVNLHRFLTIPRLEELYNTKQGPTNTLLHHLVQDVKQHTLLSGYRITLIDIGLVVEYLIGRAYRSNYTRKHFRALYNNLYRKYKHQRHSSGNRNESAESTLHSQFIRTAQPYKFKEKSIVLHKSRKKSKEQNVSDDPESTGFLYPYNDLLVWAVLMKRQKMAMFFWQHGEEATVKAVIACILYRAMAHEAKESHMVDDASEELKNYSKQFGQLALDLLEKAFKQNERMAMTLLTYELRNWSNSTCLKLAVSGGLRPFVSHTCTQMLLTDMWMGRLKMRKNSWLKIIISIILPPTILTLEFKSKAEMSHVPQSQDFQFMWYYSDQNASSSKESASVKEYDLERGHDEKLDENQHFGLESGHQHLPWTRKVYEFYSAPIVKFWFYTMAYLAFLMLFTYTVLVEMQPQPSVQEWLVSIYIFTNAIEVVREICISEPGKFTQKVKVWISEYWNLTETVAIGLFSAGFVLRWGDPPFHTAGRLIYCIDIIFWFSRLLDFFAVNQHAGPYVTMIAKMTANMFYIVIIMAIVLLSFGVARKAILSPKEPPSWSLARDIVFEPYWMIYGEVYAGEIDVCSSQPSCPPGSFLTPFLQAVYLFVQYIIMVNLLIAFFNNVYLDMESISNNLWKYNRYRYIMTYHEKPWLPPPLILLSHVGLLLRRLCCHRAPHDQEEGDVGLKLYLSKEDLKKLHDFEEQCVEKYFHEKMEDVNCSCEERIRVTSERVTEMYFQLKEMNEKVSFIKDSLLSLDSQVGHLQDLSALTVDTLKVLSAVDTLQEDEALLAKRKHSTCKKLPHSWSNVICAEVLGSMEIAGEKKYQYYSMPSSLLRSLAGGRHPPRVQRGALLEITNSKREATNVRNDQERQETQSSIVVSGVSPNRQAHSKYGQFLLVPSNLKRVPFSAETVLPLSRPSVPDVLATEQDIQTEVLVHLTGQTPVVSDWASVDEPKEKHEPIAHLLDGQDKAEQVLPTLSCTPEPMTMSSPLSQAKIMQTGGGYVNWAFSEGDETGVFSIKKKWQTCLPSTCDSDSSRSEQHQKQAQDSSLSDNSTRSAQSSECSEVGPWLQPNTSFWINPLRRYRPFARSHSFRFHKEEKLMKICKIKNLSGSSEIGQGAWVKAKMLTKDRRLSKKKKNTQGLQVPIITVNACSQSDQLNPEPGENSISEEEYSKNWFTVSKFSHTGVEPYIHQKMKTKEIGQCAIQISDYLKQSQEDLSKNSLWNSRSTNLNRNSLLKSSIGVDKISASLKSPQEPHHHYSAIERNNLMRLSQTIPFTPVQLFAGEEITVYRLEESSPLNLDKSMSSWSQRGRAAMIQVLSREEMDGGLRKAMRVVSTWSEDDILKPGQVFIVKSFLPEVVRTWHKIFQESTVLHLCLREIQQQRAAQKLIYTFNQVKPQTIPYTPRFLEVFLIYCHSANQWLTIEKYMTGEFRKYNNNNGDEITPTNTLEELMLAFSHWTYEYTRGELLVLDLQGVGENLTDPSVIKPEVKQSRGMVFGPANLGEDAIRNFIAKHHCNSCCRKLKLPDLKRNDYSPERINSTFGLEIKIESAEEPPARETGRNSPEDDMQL
Procedure, shortened: as §1

GRK3 = molecular target: T2, GRK3 (Homo sapiens, UniProt P35626); conditions: GRK3, 1 μM; read-out: % control
T2 sequence (P35626 1-688): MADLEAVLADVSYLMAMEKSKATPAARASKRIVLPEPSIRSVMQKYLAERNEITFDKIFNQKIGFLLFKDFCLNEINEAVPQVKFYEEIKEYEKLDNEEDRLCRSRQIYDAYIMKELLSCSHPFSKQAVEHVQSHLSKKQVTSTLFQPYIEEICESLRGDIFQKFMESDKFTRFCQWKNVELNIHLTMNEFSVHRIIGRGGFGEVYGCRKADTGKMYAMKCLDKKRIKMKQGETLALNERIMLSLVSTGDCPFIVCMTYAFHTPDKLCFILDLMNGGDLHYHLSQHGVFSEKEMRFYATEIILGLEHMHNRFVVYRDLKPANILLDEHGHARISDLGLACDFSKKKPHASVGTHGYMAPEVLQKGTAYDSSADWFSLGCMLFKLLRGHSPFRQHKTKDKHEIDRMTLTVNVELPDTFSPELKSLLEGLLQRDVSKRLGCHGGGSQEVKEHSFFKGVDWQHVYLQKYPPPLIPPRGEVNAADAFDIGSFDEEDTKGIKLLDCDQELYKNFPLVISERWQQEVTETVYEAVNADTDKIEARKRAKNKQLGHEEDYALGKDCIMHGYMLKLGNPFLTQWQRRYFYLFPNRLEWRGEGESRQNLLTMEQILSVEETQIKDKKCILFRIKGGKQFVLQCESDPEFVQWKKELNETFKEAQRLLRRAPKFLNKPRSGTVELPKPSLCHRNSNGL
Procedure, shortened: as §1

CLK3 = CLK3 (Homo sapiens, UniProt P49761); conditions: CLK3, 1 μM; read-out: % control
Chain of CLK3 (P49761 whole entry): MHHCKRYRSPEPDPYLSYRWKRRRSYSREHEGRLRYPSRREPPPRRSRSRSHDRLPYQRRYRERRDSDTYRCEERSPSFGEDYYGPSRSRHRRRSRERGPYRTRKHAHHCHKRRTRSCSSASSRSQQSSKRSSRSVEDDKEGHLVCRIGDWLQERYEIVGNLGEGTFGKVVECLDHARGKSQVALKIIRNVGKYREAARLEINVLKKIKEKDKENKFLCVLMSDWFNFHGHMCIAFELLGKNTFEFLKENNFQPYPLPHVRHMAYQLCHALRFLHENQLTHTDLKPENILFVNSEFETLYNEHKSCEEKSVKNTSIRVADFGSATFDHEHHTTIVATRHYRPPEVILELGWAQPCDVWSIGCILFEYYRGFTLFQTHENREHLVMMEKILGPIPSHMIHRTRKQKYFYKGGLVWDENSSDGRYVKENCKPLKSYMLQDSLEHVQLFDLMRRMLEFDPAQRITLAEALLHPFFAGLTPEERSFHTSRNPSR
Procedure, shortened: as §1

KIT = molecular target: T3, KIT (Homo sapiens, UniProt P10721); conditions: read-out: % control
T3 construct: purchased KinomeScan®
Procedure, shortened: as §1

ERN1 = ERN1 (Homo sapiens, UniProt O75460); conditions: ERN1, 1 μM; read-out: % control
Procedure, shortened: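 Test agents were profiled at a single concentration of 1 μM (DMSO vehicle) on a near-complete set of 468 kinases. Signal is reported relative to vehicle (100%) and a fully displacing control (0%).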

PYK2 = PYK2 (Homo sapiens, UniProt Q14289); conditions: PYK2, 1 μM; read-out: % control
Chain of PYK2 (Q14289 whole entry): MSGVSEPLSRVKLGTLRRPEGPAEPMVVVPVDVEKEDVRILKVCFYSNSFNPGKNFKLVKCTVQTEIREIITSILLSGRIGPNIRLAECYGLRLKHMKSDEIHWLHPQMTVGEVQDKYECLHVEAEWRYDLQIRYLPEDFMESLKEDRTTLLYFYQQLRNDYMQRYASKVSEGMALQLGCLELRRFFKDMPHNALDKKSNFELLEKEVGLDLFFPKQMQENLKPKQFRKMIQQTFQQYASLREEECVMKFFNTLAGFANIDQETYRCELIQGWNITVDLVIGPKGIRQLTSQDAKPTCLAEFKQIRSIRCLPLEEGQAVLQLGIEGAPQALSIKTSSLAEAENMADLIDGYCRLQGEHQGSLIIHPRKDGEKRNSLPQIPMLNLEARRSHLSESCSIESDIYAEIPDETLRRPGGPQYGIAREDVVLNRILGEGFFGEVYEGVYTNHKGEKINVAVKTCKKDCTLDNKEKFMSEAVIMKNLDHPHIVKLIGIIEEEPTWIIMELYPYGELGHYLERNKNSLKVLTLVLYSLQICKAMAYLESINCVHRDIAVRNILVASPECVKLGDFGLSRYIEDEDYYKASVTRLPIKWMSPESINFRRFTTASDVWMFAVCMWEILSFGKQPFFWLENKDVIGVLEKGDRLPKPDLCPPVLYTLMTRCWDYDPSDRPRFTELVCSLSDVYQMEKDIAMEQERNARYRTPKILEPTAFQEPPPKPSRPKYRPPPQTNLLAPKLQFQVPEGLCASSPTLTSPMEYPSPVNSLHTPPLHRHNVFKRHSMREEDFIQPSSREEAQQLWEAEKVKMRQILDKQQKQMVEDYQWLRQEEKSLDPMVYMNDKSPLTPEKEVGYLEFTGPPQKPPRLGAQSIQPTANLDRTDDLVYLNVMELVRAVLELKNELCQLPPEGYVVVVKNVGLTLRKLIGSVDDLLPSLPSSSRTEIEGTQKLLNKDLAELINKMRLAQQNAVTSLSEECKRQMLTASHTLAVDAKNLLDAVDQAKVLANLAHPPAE
Procedure, shortened: as §1

PAK1 = PAK1 (Homo sapiens, UniProt Q13153); conditions: PAK1, 1 μM; read-out: % control
Chain of PAK1 (Q13153 whole entry): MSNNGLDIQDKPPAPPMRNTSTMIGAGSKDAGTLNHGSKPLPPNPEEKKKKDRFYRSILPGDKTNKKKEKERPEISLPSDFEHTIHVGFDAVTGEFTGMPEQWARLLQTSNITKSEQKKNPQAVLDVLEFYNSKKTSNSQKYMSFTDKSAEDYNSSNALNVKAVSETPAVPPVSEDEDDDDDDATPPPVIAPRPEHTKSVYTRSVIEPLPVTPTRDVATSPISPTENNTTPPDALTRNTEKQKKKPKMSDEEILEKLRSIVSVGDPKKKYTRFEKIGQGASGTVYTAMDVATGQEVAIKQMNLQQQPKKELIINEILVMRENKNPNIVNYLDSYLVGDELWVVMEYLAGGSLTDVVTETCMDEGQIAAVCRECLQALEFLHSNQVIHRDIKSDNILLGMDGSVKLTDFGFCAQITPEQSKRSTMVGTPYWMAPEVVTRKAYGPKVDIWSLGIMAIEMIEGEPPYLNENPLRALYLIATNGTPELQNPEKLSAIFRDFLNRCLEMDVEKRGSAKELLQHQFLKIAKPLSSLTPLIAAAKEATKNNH
Procedure, shortened: as §1

CSNK1D = CSNK1D (Homo sapiens, UniProt P48730); conditions: read-out: % control
Chain of CSNK1D (P48730 whole entry): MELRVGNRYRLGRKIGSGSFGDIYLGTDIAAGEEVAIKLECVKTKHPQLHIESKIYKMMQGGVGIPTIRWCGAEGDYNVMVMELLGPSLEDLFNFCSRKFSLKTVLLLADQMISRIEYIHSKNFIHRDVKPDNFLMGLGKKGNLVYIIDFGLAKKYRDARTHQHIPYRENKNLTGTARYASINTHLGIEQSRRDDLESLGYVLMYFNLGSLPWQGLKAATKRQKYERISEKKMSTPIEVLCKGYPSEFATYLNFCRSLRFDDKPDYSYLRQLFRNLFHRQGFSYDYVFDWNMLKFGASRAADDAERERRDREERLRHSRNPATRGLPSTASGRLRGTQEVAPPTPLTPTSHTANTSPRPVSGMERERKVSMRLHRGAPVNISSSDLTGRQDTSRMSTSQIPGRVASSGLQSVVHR
Procedure, shortened: as §1

CAMK2B = CAMK2B (Homo sapiens, UniProt Q13554); conditions: read-out: % control
Procedure, shortened: as §1

Chain of YSK1 (O00506 whole entry): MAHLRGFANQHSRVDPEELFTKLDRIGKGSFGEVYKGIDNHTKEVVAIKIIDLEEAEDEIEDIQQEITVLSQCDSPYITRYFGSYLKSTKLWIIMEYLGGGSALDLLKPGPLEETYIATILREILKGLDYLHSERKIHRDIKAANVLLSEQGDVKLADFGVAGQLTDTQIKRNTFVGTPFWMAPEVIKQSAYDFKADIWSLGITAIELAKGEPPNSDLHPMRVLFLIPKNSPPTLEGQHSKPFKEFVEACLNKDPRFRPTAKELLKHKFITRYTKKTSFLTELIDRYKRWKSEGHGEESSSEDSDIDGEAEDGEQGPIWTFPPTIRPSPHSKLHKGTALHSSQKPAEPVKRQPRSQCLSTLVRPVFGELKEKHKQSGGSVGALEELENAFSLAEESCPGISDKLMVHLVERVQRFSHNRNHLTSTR

`CNc1c(-c2cnn([C@H]3CCN(C(C)=O)C[C@@H]3F)c2)cnc2[nH]cc(Cl)c12` [Compound 77, 1-((3S,4S)-4-(4-(3-chloro-4-(methylamino)-1H-pyrrolo[2,3-b]pyridin-5-yl)-1H-pyrazol-1-yl)-3-fluoropiperidin-1-yl)ethan-1-one] was tested, and the remaining binding at 1 µM (YSK1) was 84%, the remaining binding at 1 µM (MST2) was 100% and the remaining binding at 1 µM (ERK2) was 91%. For the same compound, the remaining binding at 1 µM (TRPM6) was 89%, the remaining binding at 1 µM (GRK3) was 93% and the remaining binding at 1 µM (CLK3) was 88%. For the same compound, the remaining binding at 1 µM (KIT) was 4.8%, the remaining binding at 1 µM (ERN1) was 56% and the remaining binding at 1 µM (PYK2) was 89%. The remaining binding at 1 µM (PAK1) was 99%, the remaining binding at 1 µM (CSNK1D) was 84% and the remaining binding at 1 µM (CAMK2B) was 100%.

`O=C(c1ccc(-c2cnc3[nH]cc(Cl)c3c2NC2CCCC2)cc1)N1CCC(N2CCOCC2)CC1` [Compound 101, (4-(3-chloro-4-(cyclopentylamino)-1H-pyrrolo[2,3-b]pyridin-5-yl)phenyl)(4-morpholinopiperidin-1-yl)methanone] showed a remaining binding at 1 µM (YSK1) of 100%, a remaining binding at 1 µM (MST2) of 74% and a remaining binding at 1 µM (ERK2) of 93%. The remaining binding at 1 µM (TRPM6) was 100%, the remaining binding at 1 µM (GRK3) was 94% and the remaining binding at 1 µM (CLK3) was 97%. It also gave a remaining binding at 1 µM (KIT) of 58%, a remaining binding at 1 µM (ERN1) of 86% and a remaining binding at 1 µM (PYK2) of 78%. It also gave a remaining binding at 1 µM (PAK1) of 100%, a remaining binding at 1 µM (CSNK1D) of 92% and a remaining binding at 1 µM (CAMK2B) of 99%.

With `CNc1c(-c2ccc(C(=O)N3CCC(N4CCOCC4)CC3)cc2)cnc2[nH]cc(Cl)c12` [Compound 96, (4-(3-chloro-4-(methylamino)-1H-pyrrolo[2,3-b]pyridin-5-yl)phenyl)(4-morpholinopiperidin-1-yl)methanone] the remaining binding at 1 µM (YSK1) was 97%, the remaining binding at 1 µM (MST2) was 99% and the remaining binding at 1 µM (ERK2) was 95%. The remaining binding at 1 µM (TRPM6) was 82%, the remaining binding at 1 µM (GRK3) was 92% and the remaining binding at 1 µM (CLK3) was 98%. The remaining binding at 1 µM (KIT) was 11%, the remaining binding at 1 µM (ERN1) was 73% and the remaining binding at 1 µM (PYK2) was 92%. The remaining binding at 1 µM (PAK1) was 99%, the remaining binding at 1 µM (CSNK1D) was 90% and the remaining binding at 1 µM (CAMK2B) was 100%.
